What was measured:
Assay in all cases: relative viability (nuclei count vs DMSO), 5 days (fraction); higher = more cells survive
GW-2580 + Lapatinib = compound: COC1=CC=C(C=C1)COC2=C(C=C(C=C2)CC3=CN=C(N=C3N)N)OC [GW-2580] + CS(=O)(=O)CCNCc1ccc(-c2ccc3ncnc(Nc4ccc(OCc5cccc(F)c5)c(Cl)c4)c3c2)o1 [Lapatinib] (partner 2 µM)
Method in brief: (§1)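 Dosing by pin tool came one day after lung cancer cell lines were seeded in 1536-well plates, using either one drug or a fixed anchor-drug dose plus five library-drug doses (not always all listed) in √10 steps. After 5 days, nuclei were counted on 4× images. Relative viability is treated-well nuclei count divided by vehicle-well nuclei count, and values are medians of duplicate plates.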

GW-2580 + Olaparib = compound: COC1=CC=C(C=C1)COC2=C(C=C(C=C2)CC3=CN=C(N=C3N)N)OC [GW-2580] + O=C(c1cc(Cc2n[nH]c(=O)c3ccccc23)ccc1F)N1CCN(C(=O)C2CC2)CC1 [Olaparib] (partner 8 µM)
Method in brief: as §1

Fedratinib + OSI-027 = compound: Cc1cnc(Nc2ccc(OCCN3CCCC3)cc2)nc1Nc1cccc(S(=O)(=O)NC(C)(C)C)c1 [Fedratinib] + COc1cccc2cc(-c3nc([C@H]4CC[C@H](C(=O)O)CC4)n4ncnc(N)c34)[nH]c12 [OSI-027] (partner 0.5 µM)
Method in brief: as §1

Fedratinib + Tozasertib = compound: Cc1cnc(Nc2ccc(OCCN3CCCC3)cc2)nc1Nc1cccc(S(=O)(=O)NC(C)(C)C)c1 [Fedratinib] + Cc1cc(Nc2cc(N3CCN(C)CC3)nc(Sc3ccc(NC(=O)C4CC4)cc3)n2)n[nH]1 [Tozasertib] (partner 0.1 µM)
Method in brief: as §1

Fedratinib + Pemetrexed = compound: Cc1cnc(Nc2ccc(OCCN3CCCC3)cc2)nc1Nc1cccc(S(=O)(=O)NC(C)(C)C)c1 [Fedratinib] + Nc1nc2[nH]cc(CCc3ccc(C(=O)N[C@@H](CCC(=O)O)C(=O)O)cc3)c2c(=O)[nH]1 [Pemetrexed] (partner 0.2 µM)
Method in brief: as §1

Fedratinib + Decitabine = compound: Cc1cnc(Nc2ccc(OCCN3CCCC3)cc2)nc1Nc1cccc(S(=O)(=O)NC(C)(C)C)c1 [Fedratinib] + Nc1ncn([C@H]2C[C@H](O)[C@@H](CO)O2)c(=O)n1 [Decitabine] (partner 2 µM)
Method in brief: as §1

| Cell Line | relative viability (GW-2580 + Lapatinib; first compound 0.08 µM) | relative viability (GW-2580 + Lapatinib; first compound 0.8 µM) | relative viability (GW-2580 + Lapatinib; first compound 2.53 µM) | relative viability (GW-2580 + Lapatinib; first compound 8 µM) | relative viability (GW-2580 + Olaparib; first compound 0.08 µM) | relative viability (GW-2580 + Olaparib; first compound 0.8 µM) | relative viability (GW-2580 + Olaparib; first compound 2.53 µM) | relative viability (GW-2580 + Olaparib; first compound 8 µM) | relative viability (Fedratinib + OSI-027; first compound 0.1 µM) | relative viability (Fedratinib + OSI-027; first compound 0.3162 µM) | relative viability (Fedratinib + OSI-027; first compound 1 µM) | relative viability (Fedratinib + Tozasertib; first compound 0.1 µM) | relative viability (Fedratinib + Tozasertib; first compound 0.3162 µM) | relative viability (Fedratinib + Tozasertib; first compound 1 µM) | relative viability (Fedratinib + Pemetrexed; first compound 0.1 µM) | relative viability (Fedratinib + Pemetrexed; first compound 0.3162 µM) | relative viability (Fedratinib + Pemetrexed; first compound 1 µM) | relative viability (Fedratinib + Decitabine; first compound 0.1 µM) | relative viability (Fedratinib + Decitabine; first compound 0.3162 µM) | relative viability (Fedratinib + Decitabine; first compound 1 µM) |
| --- | --- | --- | --- | --- | --- | --- | --- | --- | --- | --- | --- | --- | --- | --- | --- | --- | --- | --- | --- | --- |
| Calu-6 | 1.14 | 1.18 | 1.06 | 1.08 | 0.657 | 0.663 | 0.559 | 0.636 |  |  |  |  |  |  |  |  |  |  |  |  |
| ChaGo-K-1 |  |  |  |  | 0.423 | 0.457 | 0.388 | 0.393 | 0.431 | 0.577 | 0.504 | 0.213 | 0.245 | 0.217 | 0.273 | 0.254 | 0.253 | 0.488 | 0.513 | 0.544 |
| EBC-1 | 0.193 | 0.219 | 0.214 | 0.21 | 0.837 | 0.734 | 0.664 | 0.59 |  |  |  |  |  |  |  |  |  |  |  |  |
| EKVX | 0.181 | 0.236 | 0.189 | 0.18 | 0.905 | 0.986 | 0.812 | 0.89 | 0.702 | 0.745 | 0.758 | 0.359 | 0.343 | 0.407 | 0.377 | 0.431 | 0.392 | 0.315 | 0.37 | 0.363 |
| EMC-BAC-2 | 0.909 | 0.95 | 0.84 | 0.901 | 0.477 | 0.514 | 0.429 | 0.462 | 0.323 | 0.387 | 0.351 | 0.201 | 0.268 | 0.227 | 0.425 | 0.481 | 0.39 | 1.01 | 1.07 | 0.988 |
| EPLC-272H | 1.13 | 1.04 | 0.886 | 0.916 | 0.819 | 0.861 | 0.755 | 0.605 | 0.276 | 0.289 | 0.114 | 0.178 | 0.318 | 0.251 | 0.389 | 0.272 | 0.343 | 0.312 | 0.393 | 0.344 |
| H3255 | 0.216 | 0.265 | 0.234 | 0.249 | 0.618 | 0.607 | 0.566 | 0.508 | 0.521 | 0.671 | 0.565 | 0.578 | 0.537 | 0.655 | 0.531 | 0.559 | 0.563 | 0.607 | 0.685 | 0.507 |
| HARA | 0.757 | 0.902 | 0.535 | 0.63 | 0.624 | 1.19 | 0.895 | 0.726 | 0.494 | 0.575 | 0.291 | 0.107 | 0.105 | 0.0905 | 0.253 | 0.259 | 0.185 | 0.485 | 0.551 | 0.427 |
| HCC-15 | 0.87 | 1.08 | 0.807 | 0.866 | 0.841 | 0.628 | 0.66 | 0.75 | 0.499 | 0.705 | 0.576 | 0.165 | 0.339 | 0.341 | 0.212 | 0.225 | 0.202 | 0.507 | 0.738 | 0.533 |

From the supplement of paper PMC10307832
